Data from ChEMBL document CHEMBL1151132, “Autooxidation Studies on the Marine Sesterterpene Tetronic Acid, Variabilin” (J Nat Prod, 1989).

Experiments:
Poliovirus 1 [1] = experiment: Antiviral activity against PV1 infected in […] BSC cells at 20 ug/6 mm disk; assay type: functional
Human alphaherpesvirus 1 [2] = experiment: Antiviral activity against HSV1 infected in […] BSC cells at 20 ug/6 mm disk; assay type: functional
[3] = Cytotoxicity against […] BSC cells at 20 ug /6 mm disk; assay type: cell-based
[4] = Cytotoxicity against […] BSC cells at 2 ug /6 mm disk; assay type: cell-based
Poliovirus 1 [5] = experiment: Antiviral activity against PV1 infected in […] BSC cells at 2 ug/6 mm disk; assay type: functional
[6] = Cytotoxicity against […] BSC cells at 5 ug /6 mm disk; assay type: cell-based
Poliovirus 1 [7] = experiment: Antiviral activity against PV1 infected in […] BSC cells at 5 ug/6 mm disk; assay type: functional
Human alphaherpesvirus 1 [8] = experiment: Antiviral activity against HSV1 infected in […] BSC cells at 2 ug/6 mm disk; assay type: functional

Row | Compound | inhibition zone (IZ) (Poliovirus 1 [1]) | inhibition zone (IZ) (Human alphaherpesvirus 1 [2]) | inhibition zone (IZ) [3] | inhibition zone (IZ) [4] | inhibition zone (IZ) (Poliovirus 1 [5]) | inhibition zone (IZ) [6] | inhibition zone (IZ) (Poliovirus 1 [7]) | inhibition zone (IZ) (Human alphaherpesvirus 1 [8])
1 | COC1=C(C)C(=O)O/C1=C\C(C)CCC/C(C)=C/CC/C(C)=C/CCC1(O)C(OC)OC(OC)C1O (mixture of isomers) | 4 mm | 4 mm | 1 mm |  |  |  |  | 
2 | COC1=C(C)C(=O)O/C1=C\C(C)CCC/C(C)=C/CC/C(C)=C/CCC1=CC(O)OC1=O (mixture of isomers) |  |  | 4 mm | 2 mm | 2 mm |  |  | 
3 | COC1=C(C)C(=O)O/C1=C\C(C)CCC/C(C)=C/CC/C(C)=C/CCC1=CC(=O)OC1O (mixture of isomers) | 4 mm | 4 mm | 2 mm | 1 mm | 2 mm |  |  | 
4 | C/C(=C\CCc1ccoc1)CC/C=C(\C)CCCC(C)CC(=O)O (stereo unspecified) |  |  |  |  |  | 2 mm | 2 mm | 
5 | CC1=C(O)/C(=C/C(C)CCC/C(C)=C/CC/C(C)=C/CCc2ccoc2)OC1=O (stereo unspecified) [VARIABILIN] |  |  |  | 1 mm | 4 mm |  |  | 4 mm
